# Measured values reported in PubChem BioAssay (NCI).
#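 Interpolation was linear, between the two tested concentrations surrounding the appropriate level; five concentrations were tested over 48 hours in 96-well plates. GI50: concentration for 50% inhibition of growth. Definition used: TGI = concentration required for complete inhibition of growth.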
# Tests used:
# Assay in all cases: NCI tumour cell line growth inhibition, 48 h
# [1] = test system: HCT-116 colon
# [2] = test system: HOP-62 NSCLC
# [3] = test system: MALME-3M melanoma
# [4] = test system: MDA-MB-435
# [5] = test system: NCI-H23 lung
# [6] = test system: OVCAR-8 ovarian
# [7] = test system: SNB-19 CNS
# [8] = test system: SW-620 colon
# [9] = test system: UO-31 renal
# [10] = test system: OVCAR-3 ovarian
smiles,measurement,setting,value
Nc1nc2nc3c(nc2c(=O)[nH]1)CN(c1ccc(C(=O)O)cc1)C3=O,TGI,[1],> 100 µM
same,TGI,[2],83.7 µM
same,TGI,[3],> 100 µM
same,TGI,[4],> 100 µM
same,TGI,[5],> 100 µM
same,TGI,[6],> 100 µM
same,TGI,[7],> 100 µM
same,TGI,[8],> 100 µM
same,TGI,[9],> 100 µM
COC(=O)C1Cc2c([nH]c3ccccc23)[C@H](CC(C)C)N1 (some centres not stated),TGI,[1],> 100 µM
same,TGI,[2],> 100 µM
same,TGI,[3],> 100 µM
same,TGI,[5],> 100 µM
same,TGI,[10],> 100 µM
same,TGI,[6],> 100 µM
same,TGI,[7],> 100 µM
same,TGI,[8],> 100 µM
same,TGI,[9],> 100 µM
CCCCC1(N=[N+]=[N-])C(=O)c2cccc3c2N(CCC3)C1=O (configuration not stated),TGI,[1],> 100 µM
same,TGI,[2],> 100 µM
same,TGI,[3],> 100 µM
same,TGI,[4],> 100 µM
same,TGI,[5],> 100 µM
same,TGI,[10],> 100 µM
same,TGI,[6],> 100 µM
same,TGI,[7],> 100 µM
same,TGI,[8],> 100 µM
CC(C)c1ccc2c(c1)CCC1C(C)(C)[C@@H](O)CC[C@]21C (some centres not stated),TGI,[1],34.1 µM
same,TGI,[2],37.4 µM
same,TGI,[3],30.8 µM
same,TGI,[5],93 µM
same,TGI,[10],> 100 µM
same,TGI,[6],> 100 µM
same,TGI,[7],> 100 µM
same,TGI,[9],> 100 µM
[N-]=[N+]=Nc1ccc(S(=O)(=O)Oc2cc(OS(=O)(=O)c3ccc(N=[N+]=[N-])cc3)cc(OS(=O)(=O)c3ccc(N=[N+]=[N-])cc3)c2)cc1,TGI,[1],> 100 µM
same,TGI,[2],> 100 µM
same,TGI,[3],> 100 µM
same,TGI,[5],> 100 µM
same,TGI,[10],> 100 µM
same,TGI,[6],> 10 µM
same,TGI,[7],> 10 µM
same,TGI,[8],> 10 µM
same,TGI,[9],> 100 µM
O=C(CC(O)(c1ccccc1)c1ccc(Cl)cc1)NC(=O)c1ccccc1O (configuration not stated),TGI,[1],52.6 µM
same,TGI,[2],25.6 µM
same,TGI,[3],70.6 µM
same,TGI,[5],26.9 µM
same,TGI,[10],27.4 µM
same,TGI,[6],61.3 µM
same,TGI,[7],> 100 µM
same,TGI,[8],> 100 µM
same,TGI,[9],6.75 µM
c1ccc([CH2][Sn]([CH2]c2ccccc2)([S]c2cccc3cccnc23)[S]c2cccc3cccnc23)cc1,GI50,[1],0.165 µM
same,TGI,[1],0.351 µM
same,GI50,[2],0.764 µM
same,TGI,[2],6.94 µM
same,GI50,[5],0.273 µM
same,TGI,[5],0.998 µM
same,GI50,[10],0.136 µM
same,TGI,[10],0.383 µM
same,GI50,[6],0.361 µM
same,TGI,[6],1.4 µM
same,GI50,[7],0.853 µM
same,TGI,[7],2.07 µM
same,GI50,[8],0.21 µM
same,TGI,[8],0.813 µM
same,GI50,[9],0.187 µM
same,TGI,[9],0.399 µM
CCCCN(CCCC)C(=Nc1ccccc1)N(CCCC)CCCC,TGI,[1],13.8 µM
same,TGI,[2],20.5 µM
same,TGI,[3],22.5 µM
same,TGI,[5],5.97 µM
same,TGI,[10],12.1 µM
same,TGI,[6],24.9 µM
same,TGI,[7],32 µM
same,TGI,[8],15.8 µM
same,TGI,[9],14.3 µM
O=C(c1ccccc1)c1nnn(Cc2cccc(Cl)c2)c1C(=O)c1ccccc1,TGI,[1],> 100 µM
same,TGI,[2],> 100 µM
same,TGI,[3],> 100 µM
same,TGI,[5],> 100 µM
same,TGI,[10],> 100 µM
same,TGI,[6],> 100 µM
same,TGI,[7],> 100 µM
same,TGI,[8],> 100 µM
same,TGI,[9],> 100 µM
C=CCCc1cc(OC)ccc1CN(C)C(C)(C)CO,TGI,[1],> 100 µM
same,TGI,[2],> 100 µM
same,TGI,[3],> 100 µM
same,TGI,[5],> 100 µM
same,TGI,[10],> 100 µM
same,TGI,[6],> 100 µM
same,TGI,[7],> 100 µM
same,TGI,[8],> 100 µM
Cc1ccc(S(=O)(=O)NCCCN(CCCNS(=O)(=O)c2ccc(C)cc2)S(=O)(=O)c2ccc(C)cc2)cc1,TGI,[1],> 100 µM
same,TGI,[2],> 100 µM
same,TGI,[3],> 100 µM
same,TGI,[5],> 100 µM
same,TGI,[10],> 100 µM
same,TGI,[6],> 100 µM
same,TGI,[7],> 100 µM
same,TGI,[8],> 100 µM
same,TGI,[9],> 100 µM
COc1ccc(C(=O)O/N=C2\CCCC\C2=C/c2ccccc2)cc1,TGI,[1],> 100 µM
same,TGI,[2],> 100 µM
same,TGI,[5],41.5 µM
same,TGI,[6],> 100 µM
same,TGI,[7],> 100 µM
same,TGI,[8],> 100 µM
same,TGI,[9],> 100 µM
C=C1C(=O)OC2C1C(OC(=O)/C(=C/C)COC(C)=O)CC1(CO1)C1C(OC(=O)/C(=C/C)CO)C=C(C)C21 (configuration not stated),TGI,[1],2.98 µM
same,TGI,[3],3.32 µM
same,TGI,[5],3.97 µM
same,TGI,[10],12.2 µM
same,TGI,[6],25.3 µM
same,TGI,[7],13.9 µM
same,TGI,[8],9.56 µM
same,TGI,[9],11.2 µM
COc1ccc(CCNc2nc3ccccc3c3[nH]c4ccccc4c23)cc1OC,GI50,[1],1.71 µM
same,TGI,[1],3.52 µM
same,GI50,[2],10.9 µM
same,TGI,[2],24.4 µM
same,GI50,[3],1.5 µM
same,TGI,[3],3.15 µM
same,GI50,[4],1.72 µM
same,TGI,[4],3.37 µM
same,GI50,[5],10.4 µM
same,TGI,[5],24.6 µM
same,GI50,[10],1.98 µM
same,TGI,[10],4.24 µM
same,GI50,[6],2.02 µM
same,TGI,[6],5.54 µM
same,GI50,[7],3.84 µM
same,TGI,[7],15.4 µM
same,GI50,[8],2.34 µM
same,TGI,[8],6.07 µM
CC(=O)Oc1c(-c2ccccc2)[nH]c2cc([N+](=O)[O-])c(/C(Cl)=C/c3ccccc3)cc12,TGI,[1],17.3 µM
same,TGI,[2],61.5 µM
same,TGI,[5],11.6 µM
same,TGI,[10],46.8 µM
same,TGI,[6],17.7 µM
same,TGI,[7],94.2 µM
same,TGI,[8],29.3 µM
same,TGI,[9],27.6 µM
CCC12C=CCN3CC[C@]4(C(=C(C(=O)OC)[C@@H]1Nc1ncnc5c1ncn5C1OC(COC(C)=O)C(OC(C)=O)C1OC(C)=O)Nc1ccccc14)C32 (some centres not stated),TGI,[1],5.55 µM
same,TGI,[2],5.83 µM
same,TGI,[3],15.1 µM
same,TGI,[5],4.06 µM
same,TGI,[10],4.3 µM
same,TGI,[6],4.67 µM
same,TGI,[7],12.1 µM
same,TGI,[8],5.31 µM
same,TGI,[9],13.2 µM
CC(=O)O[C@@H]1C=CC(=O)C2(CC(=O)O[C@@H]2/C=C(\C)CCC=C(C)C)C1 (some centres not stated),GI50,[1],0.399 µM
same,TGI,[1],1.71 µM
same,GI50,[2],1.36 µM
same,TGI,[2],3.4 µM
same,GI50,[4],0.369 µM
same,TGI,[4],1.6 µM
same,GI50,[5],0.365 µM
same,TGI,[5],1.33 µM
same,GI50,[10],0.435 µM
same,TGI,[10],1.6 µM
same,GI50,[6],0.35 µM
same,TGI,[6],1.81 µM
same,GI50,[7],1.6 µM
same,TGI,[7],3.58 µM
same,GI50,[8],0.436 µM
same,GI50,[9],1.58 µM
same,TGI,[9],3.59 µM
CN(C)C1(C#N)CCC2(CC1)OCCO2,TGI,[1],> 100 µM
same,TGI,[2],> 100 µM
same,TGI,[3],> 100 µM
same,TGI,[5],> 100 µM
same,TGI,[10],> 100 µM
same,TGI,[6],> 100 µM
same,TGI,[7],> 100 µM
same,TGI,[8],> 100 µM
same,TGI,[9],> 100 µM
COC1OC(OC)C2C(c3c(C)cc(C)cc3C)=NOC12 (configuration not stated),TGI,[1],> 100 µM
same,TGI,[2],> 100 µM
same,TGI,[3],> 100 µM
same,TGI,[5],> 100 µM
same,TGI,[10],> 100 µM
same,TGI,[6],> 100 µM
same,TGI,[7],> 100 µM
same,TGI,[8],> 100 µM
same,TGI,[9],> 100 µM
O=C(CC1Sc2ccccc2NC1=O)Nc1cccc(Cl)c1 (configuration not stated),TGI,[1],> 100 µM
same,TGI,[3],> 100 µM
same,TGI,[5],> 100 µM
same,TGI,[10],86.8 µM
same,TGI,[6],75.8 µM
same,TGI,[7],> 100 µM
same,TGI,[8],> 100 µM
same,TGI,[9],82.5 µM
